{"source": "paper PMC12396409", "about": "“Screening and hit evaluation of a microbial metabolite library against the pathogenic Plasmodium falciparum and Toxoplasma gondii parasites” (International Journal for Parasitology: Drugs and Drug …, 2025)", "key": {"[1]": {"tested_on": "T. gondii RH strain (RH-Tub-eYFP) tachyzoites", "experiment": "microbe, parasite or virus in culture", "assay_type": "cell-based, Toxoplasma gondii", "conditions": "72 h, 72 h; for percent parasite growth at 2 µg/mL: Toxoplasma gondii"}, "[2]": {"tested_on": "P. falciparum 3D7 parasites", "experiment": "P. falciparum growth inhibition assay, 1-cycle (72 h treatment), SYBR DNA staining (library screen at 2 μg/mL and dose-response)", "assay_type": "cell-based, Plasmodium falciparum"}, "[3]": {"tested_on": "P. falciparum 3D7 parasites", "experiment": "P. falciparum growth inhibition assay, 2-cycle (120 h treatment), delayed-death screen and dose-response", "assay_type": "cell-based, Plasmodium falciparum"}, "[4]": {"conditions": "T. gondii, 2 μg/mL, values are growth (% of control)"}, "[5]": {"conditions": "library screen at 2 μg/mL, % growth, replicate 1"}, "[6]": {"conditions": "library screen at 2 μg/mL, % growth, replicate 2"}, "[7]": {"conditions": "library screen at 2 μg/mL, 72 h, % growth, replicate 1"}, "[8]": {"conditions": "library screen at 2 μg/mL, 72 h, % growth, replicate 2"}, "[9]": {"conditions": "library screen at 2 μg/mL, 120 h, % growth, replicate 1"}, "[10]": {"conditions": "library screen at 2 μg/mL, 120 h, % growth, replicate 2"}, "[11]": {"conditions": "Plasmodium falciparum, 3D7, P. falciparum, 72 h, screen at 2 μg/mL, replicate 1, read-out: Pf_72h_%Growth_Rep1"}, "[12]": {"conditions": "Plasmodium falciparum, 3D7, P. falciparum, 72 h, screen at 2 μg/mL, replicate 2, read-out: Pf_72h_%Growth_Rep2"}, "[13]": {"conditions": "Plasmodium falciparum, 3D7, P. falciparum, 120 h, screen at 2 μg/mL, replicate 1, read-out: Pf_120h_%Growth_Rep1"}, "[14]": {"conditions": "Plasmodium falciparum, 3D7, P. falciparum, 120 h, screen at 2 μg/mL, replicate 2, read-out: Pf_120h_%Growth_Rep2"}, "[15]": {"conditions": "T. gondii, parasite screen 2 μg/mL, % growth, replicate 1"}, "[16]": {"conditions": "T. gondii, parasite screen 2 μg/mL, % growth, replicate 2"}, "[17]": {"conditions": "P. falciparum, 72 h, parasite screen 2 μg/mL, % growth, replicate 1"}, "[18]": {"conditions": "P. falciparum, 72 h, parasite screen 2 μg/mL, % growth, replicate 2"}, "[19]": {"conditions": "P. falciparum, 120 h, parasite screen 2 μg/mL, % growth, replicate 1"}, "[20]": {"conditions": "P. falciparum, 120 h, parasite screen 2 μg/mL, % growth, replicate 2"}}, "note": "Where two headings read alike, the source gives them in different places. Where a SMILES comes first, the peptide text is derived from it. [ ]: non-standard residue; d: D form. d(aIle) = CC[C@H](C)[C@@H](N)C(=O)O; Hica(2S) = CC(C)C[C@H](O)C(=O)O; NMeL = CN[C@@H](CC(C)C)C(=O)O; Hiv = CC(C)[C@H](O)C(=O)O", "data": [{"smiles": "O=c1c(-c2ccc(O)cc2)coc2cc(O)cc(O)c12", "note": "[Genistein]", "values": [{"measurement": "percent parasite growth at 2 µg/mL", "setting": "[1]; library screen at 2 μg/mL, % growth, replicate 1, read-out: Tg_72h_%Growth_Rep1", "result": 80.3, "unit": "%"}, {"measurement": "percent parasite growth at 2 µg/mL", "setting": "[1]; library screen at 2 μg/mL, % growth, replicate 2, read-out: Tg_72h_%Growth_Rep2", "result": 72.4, "unit": "%"}, {"measurement": "activity at 2 µg/mL", "setting": "[2]; Plasmodium falciparum, 3D7, library screen at 2 μg/mL, 72 h, % growth, replicate 1, read-out: Pf_72h_%Growth_Rep1", "result": 88.5, "unit": "%"}, {"measurement": "activity at 2 µg/mL", "setting": "[2]; Plasmodium falciparum, 3D7, library screen at 2 μg/mL, 72 h, % growth, replicate 2, read-out: Pf_72h_%Growth_Rep2", "result": 42.1, "unit": "%"}, {"measurement": "activity at 2 µg/mL", "setting": "[3]; Plasmodium falciparum, 3D7, library screen at 2 μg/mL, 120 h, % growth, replicate 1, read-out: Pf_120h_%Growth_Rep1", "result": 89.5, "unit": "%"}, {"measurement": "activity at 2 µg/mL", "setting": "[3]; Plasmodium falciparum, 3D7, library screen at 2 μg/mL, 120 h, % growth, replicate 2, read-out: Pf_120h_%Growth_Rep2", "result": 111, "unit": "%"}]}, {"smiles": "O=C1NC(c2c[nH]c3ccccc23)=C/C1=C1\\C(=O)Nc2ccccc21", "note": "[Deoxyviolacein]", "values": [{"measurement": "Mean", "setting": "[1]; T. gondii, 2 μg/mL, mean of both replicates, growth (% of control)", "result": 20.63}, {"measurement": "Replicate 1", "setting": "[1]; [4]", "result": 14.71}, {"measurement": "Replicate 2", "setting": "[1]; [4]", "result": 26.55}, {"measurement": "Tg_72h_%Growth_Rep1", "setting": "[1]; [5]", "result": 14.71, "unit": "%"}, {"measurement": "Tg_72h_%Growth_Rep2", "setting": "[1]; [6]", "result": 26.55, "unit": "%"}, {"measurement": "Pf_72h_%Growth_Rep1", "setting": "[2]; [7]", "result": 4.36, "unit": "%"}, {"measurement": "Pf_72h_%Growth_Rep2", "setting": "[2]; [8]", "result": 20.63, "unit": "%"}, {"measurement": "Pf_120h_%Growth_Rep1", "setting": "[3]; [9]", "result": 11.68, "unit": "%"}, {"measurement": "Pf_120h_%Growth_Rep2", "setting": "[3]; [10]", "result": 9.06, "unit": "%"}]}, {"smiles": "C=C1CC[C@H]2[C@@](C)(CC[C@H]3C(C)(C)[C@@H](OC(C)=O)CC[C@]23C)[C@@H]1Cc1c(O)cc(C)oc1=O", "note": "[Aszonapyrone A]", "values": [{"measurement": "Tg_72h_%Growth_Rep1", "setting": "[1]; [5]", "result": 111.51, "unit": "%"}, {"measurement": "Tg_72h_%Growth_Rep2", "setting": "[1]; [6]", "result": 88.05, "unit": "%"}, {"measurement": "Pf_72h_%Growth_Rep1", "setting": "[2]; [7]", "result": 77.27, "unit": "%"}, {"measurement": "Pf_72h_%Growth_Rep2", "setting": "[2]; [8]", "result": 75.32, "unit": "%"}, {"measurement": "Pf_120h_%Growth_Rep1", "setting": "[3]; [9]", "result": 67.56, "unit": "%"}, {"measurement": "Pf_120h_%Growth_Rep2", "setting": "[3]; [10]", "result": 67.36, "unit": "%"}]}, {"smiles": "CS(=O)(=O)c1ccc([C@@H](O)[C@H](N)CF)cc1", "note": "[Florfenicol amine]", "values": [{"measurement": "Tg_72h_%Growth_Rep1", "setting": "[1]; [5]", "result": 102.85, "unit": "%"}, {"measurement": "Tg_72h_%Growth_Rep2", "setting": "[1]; [6]", "result": 100.85, "unit": "%"}, {"measurement": "Pf_72h_%Growth_Rep1", "setting": "[2]; [7]", "result": 83.39, "unit": "%"}, {"measurement": "Pf_72h_%Growth_Rep2", "setting": "[2]; [8]", "result": 89.53, "unit": "%"}, {"measurement": "Pf_120h_%Growth_Rep1", "setting": "[3]; [9]", "result": 94.89, "unit": "%"}, {"measurement": "Pf_120h_%Growth_Rep2", "setting": "[3]; [10]", "result": 93.06, "unit": "%"}]}, {"smiles": "O=C(O)CCC(=O)OC[C@@H](NC(=O)C(Cl)Cl)[C@H](O)c1ccc([N+](=O)[O-])cc1", "note": "[Chloramphenicol succinate]", "values": [{"measurement": "percent parasite growth at 2 µg/mL", "setting": "[1]; read-out: Tg_72h_%Growth_Rep1", "result": 79.4, "unit": "%"}, {"measurement": "percent parasite growth at 2 µg/mL", "setting": "[1]; read-out: Tg_72h_%Growth_Rep2", "result": 97.4, "unit": "%"}, {"measurement": "activity at 2 µg/mL", "setting": "[2]; [11]", "result": 111, "unit": "%"}, {"measurement": "activity at 2 µg/mL", "setting": "[2]; [12]", "result": 86.6, "unit": "%"}, {"measurement": "activity at 2 µg/mL", "setting": "[3]; [13]", "result": 150, "unit": "%"}, {"measurement": "activity at 2 µg/mL", "setting": "[3]; [14]", "result": 95.2, "unit": "%"}]}, {"smiles": "CC[C@H](C)[C@H]1NC(=O)[C@H](C(C)C)OC(=O)[C@H](CC(C)C)N(C)C(=O)[C@H](C(C)C)NC(=O)[C@H](CC(C)C)OC(=O)[C@@H](CC(C)C)NC1=O", "note": "[Sporidesmolide V] (cyclo([Hica(2S)]V[NMeL][Hiv][d(aIle)][dL]))", "values": [{"measurement": "Tg_72h_%Growth_Rep1", "setting": "[1]; [15]", "result": 84.27, "unit": "%"}, {"measurement": "Tg_72h_%Growth_Rep2", "setting": "[1]; [16]", "result": 95.04, "unit": "%"}, {"measurement": "Pf_72h_%Growth_Rep1", "setting": "[2]; [17]", "result": 8.13, "unit": "%"}, {"measurement": "Pf_72h_%Growth_Rep2", "setting": "[2]; [18]", "result": 0.54, "unit": "%"}, {"measurement": "Pf_120h_%Growth_Rep1", "setting": "[3]; [19]", "result": 158.27, "unit": "%"}, {"measurement": "Pf_120h_%Growth_Rep2", "setting": "[3]; [20]", "result": 82.66, "unit": "%"}]}, {"smiles": "CC[C@H]1OC(=O)C[C@@H](O)[C@H](C)[C@@H](O[C@@H]2O[C@H](C)[C@@H](O)[C@H](N(C)C)[C@H]2O)[C@@H](CCN2C[C@H](C)C[C@H](C)C2)C[C@@H](C)C(=O)/C=C/C(C)=C/[C@@H]1CO[C@@H]1O[C@H](C)[C@@H](O)[C@@H](OC)[C@H]1OC", "note": "[Tilmicosin, reference compound]", "values": [{"measurement": "percent parasite growth at 2 µg/mL", "setting": "[1]; T. gondii, screen at 2 μg/mL, replicate 1, read-out: Tg_72h_%Growth_Rep1", "result": 48.2, "unit": "%"}, {"measurement": "percent parasite growth at 2 µg/mL", "setting": "[1]; T. gondii, screen at 2 μg/mL, replicate 2, read-out: Tg_72h_%Growth_Rep2", "result": 37.2, "unit": "%"}, {"measurement": "activity at 2 µg/mL", "setting": "[2]; Plasmodium falciparum, 3D7; P. falciparum, 2 μg/mL, 72 h; read-out: 1) Growth (%) at 72 h", "result": 43.1, "unit": "%"}, {"measurement": "activity at 2 µg/mL", "setting": "[2]; [11]", "result": 45, "unit": "%"}, {"measurement": "activity at 2 µg/mL", "setting": "[2]; [12]", "result": 41.2, "unit": "%"}, {"measurement": "3) Fold change (72 h/120 h)", "setting": "[3]; P. falciparum, growth at 72 h / growth at 120 h, 2 μg/mL", "result": 3.0}, {"measurement": "activity at 2 µg/mL", "setting": "[3]; Plasmodium falciparum, 3D7; P. falciparum, 2 μg/mL, 120 h; read-out: 2) Growth (%) at 120 h", "result": 14.5, "unit": "%"}, {"measurement": "activity at 2 µg/mL", "setting": "[3]; [13]", "result": 22.4, "unit": "%"}, {"measurement": "activity at 2 µg/mL", "setting": "[3]; [14]", "result": 6.63, "unit": "%"}]}, {"smiles": "COC(=O)C1=CO[C@@H](C)[C@@H]2CN3CCc4c([nH]c5cc(OC)c(OC)cc45)[C@H]3C[C@H]12", "note": "[Reserpiline]", "values": [{"measurement": "Tg_72h_%Growth_Rep1", "setting": "[1]; [15]", "result": 145.39, "unit": "%"}, {"measurement": "Tg_72h_%Growth_Rep2", "setting": "[1]; [16]", "result": 95.76, "unit": "%"}, {"measurement": "Pf_72h_%Growth_Rep1", "setting": "[2]; [17]", "result": 29.90, "unit": "%"}, {"measurement": "Pf_72h_%Growth_Rep2", "setting": "[2]; [18]", "result": 27.58, "unit": "%"}, {"measurement": "Pf_120h_%Growth_Rep1", "setting": "[3]; [19]", "result": 31.58, "unit": "%"}, {"measurement": "Pf_120h_%Growth_Rep2", "setting": "[3]; [20]", "result": 13.59, "unit": "%"}]}]}
